# In patent US10226451B2, “Substituted bicyclic compounds as bromodomain inhibitors” (ZENITH EPIGENETICS LTD, priority 2013, dated 2019):
# Key:
# hIL-6 mRNA in U937 cells = assay: Inhibition of hIL-6 mRNA transcription in LPS-stimulated U937 cells; type: cell-based; details: Homo sapiens, U-937, PMA-differentiated U937 cells, LPS 1 ug/mL, 3 h, read-out: IL-6 activity
# Description: In this example, hIL-6 mRNA in tissue culture cells were quantitated to measure the transcriptional inhibition of hIL-6 when treated with a compound of the present disclosure.
# Human leukemic monocyte lymphoma U937 cells (CRL-1593.2) were plated at a density of 3.2×10^4 cells per well in a 96-well plate in 100 μL RPMI-1640 containing 10% FBS and penicillin/streptomycin, and differentiated into macrophages for 3 days in 60 ng/mL PMA ([…]) at 37° C. in 5% CO2 prior to the addition of compound. The cells were pretreated for 1 h with increasing concentrations of test compound in 0.1% DMSO prior to stimulation with 1 ug/mL lipopolysaccharide from Escherichia coli. Triplicate wells were used for each concentration. The cells were incubated at 37° C., 5% CO2 for 3 h before the cells were harvested. At time of harvest, media was removed and cells were rinsed in 200 μL PBS. Cells were harvested using the mRNA Catcher PLUS kit according to manufacturer's instructions. The eluted mRNA was then used in a one-step quantitative real-time PCR reaction using components of the RNA UltraSense™ One-Step Kit (Life Technologies) together with Applied Biosystems TaqMan® primer-probes for hIL-6 and Cyclophilin. Real-time PCR plates were run on a ViiA™7 real time PCR machine (Applied Biosystems), data was analyzed, normalizing the Ct values for hIL-6 to an internal control, prior to determining the fold expression of each sample, relative to the control.
# [1] = test system: c-myc in Human AML MV4-11 cells; assay: Inhibition of c-MYC expression (mRNA, real-time PCR) in MV4-11 cells; type: cell-based; details: 3 h, mRNA by real-time PCR
# Description: MV4-11 cells (CRL-9591) were plated at a density of 2.5×10^4 cells per well in 96 well U-bottom plates and treated with increasing concentrations of test compound or DMSO (0.1%) in IMDM media containing 10% FBS and penicillin/streptomycin, and incubated for 3 h at 37° C. Triplicate wells were used for each concentration. Cells were pelleted by centrifugation and harvested using the mRNA Catcher PLUS kit according to manufacturer's instructions. The eluted mRNA isolated was then used in a one-step quantitative real-time PCR reaction, using components of the RNA UltraSense™ One-Step Kit (Life Technologies) together with Applied Biosystems TaqMan® primer-probes for cMYC and Cyclophilin. Real-time PCR plates were run on a ViiA™7 real time PCR machine (Applied Biosystems), data was analyzed, normalizing the Ct values for hMYC to an internal control, prior to determining the fold expression of each sample, relative to the control.
# Human AML MV-4-11 cells = assay: Inhibition of cell proliferation in MV4-11 cells (CellTiter Aqueous One); type: cell-based; details: 72 h
# Description: In this example, cell titer in MV4-11 cells were quantitated to measure the inhibition of proliferation when treated with a compound of the present disclosure.
# MV4-11 cells (CRL-9591) were plated at a density of 5×10^4 cells per well in 96 well flat bottom plates and treated with increasing concentrations of test compound or DMSO (0.1%) in IMDM media containing 10% FBS and penicillin/streptomycin. Triplicate wells were used for each concentration and a well containing only media was used as a control. Plates were incubated at 37° C., 5% CO2 for 72 h before adding 20 μL of the CellTiter Aqueous One Solution (Promega) to each well and incubated at 37° C., 5% CO2 for an additional 3-4 h. The absorbance was read at 490 nm in a spectrophotometer and the percentage of cell titer relative to DMSO-treated cells was calculated after correcting for background by subtracting the blank well's signal. IC50 values were calculated using the Graph Pad Prism software.
# [2] = target: T1, Brd4 bromodomain 1 (BRD4(1)) (Homo sapiens, UniProt O60885); assay: Inhibition of tetra-acetylated histone H4 binding to Brd4 bromodomain 1 (HTRF/FRET); details: tetra-acetylated histone H4 peptide, His-tagged bromodomain 200 nM, 2 h
# T1 construct: made in house; host or cells: E. coli BL21(DE3)
# Description: Proteins were cloned and overexpressed with a N-terminal 6×His tag, then purified by nickel affinity followed by size exclusion chromatography. Briefly, E. coli BL21(DE3) cells were transformed with a recombinant expression vector encoding N-terminally Nickel affinity tagged bromodomains from Brd2, Brd3, Brd4. Cell cultures were incubated at 37° C. with shaking to the appropriate density and induced overnight with IPTG. The supernatant of lysed cells was loaded onto Ni-IDA column for purification. Eluted protein was pooled, concentrated and further purified by size exclusion chromatography. Fractions representing monomeric protein were pooled, concentrated, aliquoted, and frozen at −80° C. for use in subsequent experiments.
# Binding of tetra-acetylated histone H4 and BET bromodomains was confirmed by a Homogenous Time Resolved Fluorescence Resonance Energy Transfer (HTRF®) method. N-terminally His-tagged bromodomains (200 nM) and biotinylated tetra-acetylated histone H4 peptide (25-50 nM, Millipore) were incubated in the presence of Europium Cryptate-labeled streptavidin (Cisbio Cat. #610SAKLB) and XL665-labeled monoclonal anti-His antibody (Cisbio Cat. #61HISXLB) in a white 96 well microtiter plate (Greiner). For inhibition assays, serially diluted test compound was added to these reactions in a 0.2% final concentration of DMSO. Duplicate wells were used for each concentration tested. Final buffer concentrations were 30 mM HEPES pH 7.4, 30 mM NaCl, 0.3 mM CHAPS, 20 mM phosphate pH 7.0, 320 mM KF, 0.08% BSA. After a 2 h incubation at room temperature, fluorescence was measured at 665 and 620 nm with a SynergyH4 plate reader (Biotek). The binding inhibitory activity was shown by a decrease in 665 nm relative to 620 nm fluorescence. IC50 values were determined from a dose response curve.
SMILES,IC50 (hIL-6 mRNA in U937 cells) [nM],IC50 [1] [nM],IC50 (Human AML MV-4-11 cells) [nM],IC50 [2] [nM]
"Cc1noc(C)c1-c1cc(-c2c(C)noc2C)c2oc(=O)[nH]c2c1 [Example Compound 3, 5,7-bis(3,5-dimethylisoxazol-4-yl)benzo[d]oxazol-2(3H)-one]",300 to 3000,3000 to 30000,3000 to 30000,≤ 300
"Cc1noc(C)c1-c1cc(-c2cccnc2C(F)(F)F)c2c(c1)[nH]c(=O)n2C [Example Compound 8, 5-(3,5-dimethylisoxazol-4-yl)-1-methyl-7-(2-(trifluoromethyl)pyridin-3-yl)-1H-benzo[d]imidazol-2(3H)-one]",300 to 3000,300 to 3000,300 to 3000,≤ 300
"COc1ccc(C)cc1-c1cc(-c2c(C)noc2C)cc2[nH]c(=O)n(C)c12 [Example Compound 12, 5-(3,5-dimethylisoxazol-4-yl)-7-(2-methoxy-5-methylphenyl)-1-methyl-1H-benzo[d]imidazol-2(3H)-one]",300 to 3000,,300 to 3000,≤ 300
"Cc1noc(C)c1-c1cc(-c2cccc(C#N)c2C)c2c(c1)[nH]c(=O)n2C [Example Compound 14, 3-(6-(3,5-dimethylisoxazol-4-yl)-3-methyl-2-oxo-2,3-dihydro-1H-benzo[d]imidazol-4-yl)-2-methylbenzonitrile]",,≤ 300,300 to 3000,≤ 300
"Cc1noc(C)c1-c1cc(-c2c(C)nn(C)c2C)c2[nH]c(=S)[nH]c2c1 [Example Compound 23, 6-(3,5-dimethylisoxazol-4-yl)-4-(1,3,5-trimethyl-1H-pyrazol-4-yl)-1H-benzo[d]imidazole-2(3H)-thione]",≤ 300,≤ 300,≤ 300,≤ 300
"Cc1noc(C)c1-c1cc(-c2c(Cl)cncc2Cl)c2c(c1)[nH]c(=O)n2C [Example Compound 35, 7-(3,5-dichloropyridin-4-yl)-5-(3,5-dimethylisoxazol-4-yl)-1-methyl-1H-benzo[d]imidazol-2(3H)-one]",300 to 3000,,,≤ 300
"Cc1noc(C)c1-c1cc(-c2ccccc2Cl)c2c(c1)[nH]c(=O)n2C [Example Compound 37, 7-(2-chlorophenyl)-5-(3,5-dimethylisoxazol-4-yl)-1-methyl-1H-benzo[d]imidazol-2(3H)-one]",,300 to 3000,300 to 3000,300 to 3000
"COc1ccc(F)c(-c2cc(-c3c(C)noc3C)cc3[nH]c(=O)n(C)c23)c1 [Example Compound 41, 5-(3,5-dimethylisoxazol-4-yl)-7-(2-fluoro-5-methoxyphenyl)-1-methyl-1H-benzo[d]imidazol-2(3H)-one]",,,,≤ 300
"Cc1noc(C)c1-c1cc(-c2ccc3ocnc3c2)c2c(c1)[nH]c(=O)n2C [Example Compound 46, 7-(benzo[d]oxazol-5-yl)-5-(3,5-dimethylisoxazol-4-yl)-1-methyl-1H-benzo[d]imidazol-2(3H)-one]",,,,≤ 300

# The next lines start with the values.
IC50 (hIL-6 mRNA in U937 cells) [nM],IC50 [1] [nM],IC50 (Human AML MV-4-11 cells) [nM],IC50 [2] [nM],SMILES
≤ 300,≤ 300,300 to 3000,≤ 300,"Cc1ccncc1-c1cc(-c2c(C)noc2C)cc2[nH]c(=O)n(C)c12 [Example Compound 6, 5-(3,5-dimethylisoxazol-4-yl)-1-methyl-7-(4-methylpyridin-3-yl)-1H-benzo[d]imidazol-2(3H)-one]"
,300 to 3000,300 to 3000,≤ 300,"Cc1noc(C)c1-c1cc(-c2c(C)noc2C)c2c(c1)n(C)c(=O)n2C [Example Compound 15, 4,6-bis(3,5-dimethylisoxazol-4-yl)-1,3-dimethyl-1H-benzo[d]imidazol-2(3H)-one]"
300 to 3000,≤ 300,300 to 3000,≤ 300,"Cc1ccc(C#N)cc1-c1cc(-c2c(C)noc2C)cc2[nH]c(=O)n(C)c12 [Example Compound 16, 3-(6-(3,5-dimethylisoxazol-4-yl)-3-methyl-2-oxo-2,3-dihydro-1H-benzo[d]imidazol-4-yl)-4-methylbenzonitrile]"
,≤ 300,300 to 3000,≤ 300,"COc1ccncc1-c1cc(-c2c(C)noc2C)cc2[nH]c(=O)n(C)c12 [Example Compound 17, 5-(3,5-dimethylisoxazol-4-yl)-7-(4-methoxypyridin-3-yl)-1-methyl-1H-benzo[d]imidazol-2(3H)-one]"
300 to 3000,≤ 300,300 to 3000,≤ 300,"Cc1ccc(Cl)cc1-c1cc(-c2c(C)noc2C)cc2[nH]c(=O)n(C)c12 [Example Compound 19, 7-(5-chloro-2-methylphenyl)-5-(3,5-dimethylisoxazol-4-yl)-1-methyl-1H-benzo[d]imidazol-2(3H)-one]"
,≤ 300,300 to 3000,≤ 300,"Cc1ccncc1-c1cc(-c2c(C)noc2C)cc2[nH]c(=S)[nH]c12 [Example Compound 24, 6-(3,5-dimethylisoxazol-4-yl)-4-(4-methylpyridin-3-yl)-1H-benzo[d]imidazole-2-thiol]"
,≤ 300,300 to 3000,≤ 300,"Cc1ccc(C#N)cc1-c1cc(-c2c(C)noc2C)cc2[nH]c(=S)[nH]c12 [Example Compound 25, 3-(6-(3,5-dimethylisoxazol-4-yl)-2-thioxo-2,3-dihydro-1H-benzo[d]imidazol-4-yl)-4-methylbenzonitrile]"
,300 to 3000,300 to 3000,300 to 3000,"Cc1noc(C)c1-c1cc(-c2cnc3ccccc3c2)c2c(c1)[nH]c(=O)n2C [Example Compound 36, 5-(3,5-dimethylisoxazol-4-yl)-1-methyl-7-(quinolin-3-yl)-1H-benzo[d]imidazol-2(3H)-one]"
,,,≤ 300,"COc1ccc(Cl)cc1-c1cc(-c2c(C)noc2C)cc2[nH]c(=O)n(C)c12 [Example Compound 42, 7-(5-chloro-2-methoxyphenyl)-5-(3,5-dimethylisoxazol-4-yl)-1-methyl-1H-benzo[d]imidazol-2(3H)-one]"
,,,300 to 3000,"COc1cccc(-c2cc(-c3c(C)noc3C)cc3[nH]c(=O)n(C)c23)c1F [Example Compound 43, 5-(3,5-dimethylisoxazol-4-yl)-7-(2-fluoro-3-methoxyphenyl)-1-methyl-1H-benzo[d]imidazol-2(3H)-one]"
